Results: PubChem BioAssay (NCI)
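The compound was tested at five concentrations on cells cultured in 96-well plates, with a 48-hour exposure period. GI50 = concentration required for 50% inhibition of growth. TGI is the concentration that stops growth completely.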

How the values were obtained:
Test in all cases: NCI tumour cell line growth inhibition, 48 h
786-0 renal = tested on: 786-0 renal
A498 renal = tested on: A498 renal
A549 NSCLC = tested on: A549 NSCLC
ACHN renal = tested on: ACHN renal
BT-549 breast = tested on: BT-549 breast
CAKI-1 renal = tested on: CAKI-1 renal
CCRF-CEM leukemia = tested on: CCRF-CEM leukemia
COLO 205 colon = tested on: COLO 205 colon
DU-145 prostate = tested on: DU-145 prostate
EKVX NSCLC = tested on: EKVX NSCLC
HCC-2998 colon = tested on: HCC-2998 colon
HCT-116 colon = tested on: HCT-116 colon
HCT-15 colon = tested on: HCT-15 colon
HL-60(TB) leukemia = tested on: HL-60(TB) leukemia
HOP-62 NSCLC = tested on: HOP-62 NSCLC
HOP-92 NSCLC = tested on: HOP-92 NSCLC
HS 578T breast = tested on: HS 578T breast
HT29 colon = tested on: HT29 colon
IGROV1 ovarian = tested on: IGROV1 ovarian
K-562 leukemia = tested on: K-562 leukemia
KM12 colon = tested on: KM12 colon
LOX IMVI melanoma = tested on: LOX IMVI melanoma
M14 melanoma = tested on: M14 melanoma
MALME-3M melanoma = tested on: MALME-3M melanoma
MCF7 breast = tested on: MCF7 breast
MDA-MB-231 breast = tested on: MDA-MB-231 breast
MDA-MB-435 = tested on: MDA-MB-435
MOLT-4 leukemia = tested on: MOLT-4 leukemia
NCI-H226 lung = tested on: NCI-H226 lung
NCI-H23 lung = tested on: NCI-H23 lung
NCI-H460 lung = tested on: NCI-H460 lung
NCI-H522 lung = tested on: NCI-H522 lung
NCI/ADR-RES ovarian = tested on: NCI/ADR-RES ovarian
OVCAR-3 ovarian = tested on: OVCAR-3 ovarian
OVCAR-5 ovarian = tested on: OVCAR-5 ovarian
OVCAR-8 ovarian = tested on: OVCAR-8 ovarian
PC-3 prostate = tested on: PC-3 prostate
RPMI-8226 leukemia = tested on: RPMI-8226 leukemia
RXF 393 renal = tested on: RXF 393 renal
SF-268 CNS = tested on: SF-268 CNS
SF-295 CNS = tested on: SF-295 CNS
SF-539 CNS = tested on: SF-539 CNS
SK-MEL-2 melanoma = tested on: SK-MEL-2 melanoma
SK-MEL-28 melanoma = tested on: SK-MEL-28 melanoma
SK-MEL-5 melanoma = tested on: SK-MEL-5 melanoma
SK-OV-3 ovarian = tested on: SK-OV-3 ovarian
SN12C renal = tested on: SN12C renal
SNB-19 CNS = tested on: SNB-19 CNS
SNB-75 CNS = tested on: SNB-75 CNS
SR leukemia = tested on: SR leukemia
SW-620 colon = tested on: SW-620 colon
T-47D breast = tested on: T-47D breast
TK-10 renal = tested on: TK-10 renal
U251 CNS = tested on: U251 CNS
UACC-257 melanoma = tested on: UACC-257 melanoma
UACC-62 melanoma = tested on: UACC-62 melanoma
UO-31 renal = tested on: UO-31 renal

## Cn1cc(-c2nc3c(F)cc4[nH]ncc4c3c3c2CCCC3)c(C(F)(F)F)n1
786-0 renal
  GI50: 10.7 µM
  TGI: 27.7 µM
A498 renal
  GI50: 1.7 µM
  TGI: 4.88 µM
A549 NSCLC
  GI50: 5.7 µM
  TGI: 59.4 µM
ACHN renal
  GI50: 5.05 µM
  TGI: > 100 µM
BT-549 breast
  GI50: 2.62 µM
  TGI: 15.4 µM
CAKI-1 renal
  GI50: 3.33 µM
  TGI: > 100 µM
CCRF-CEM leukemia
  GI50: 4.66 µM
  TGI: > 100 µM
COLO 205 colon
  GI50: 19.6 µM
  TGI: 57.1 µM
DU-145 prostate
  GI50: 10.9 µM
  TGI: 77.7 µM
EKVX NSCLC
  GI50: 9.47 µM
  TGI: 36.6 µM
HCC-2998 colon
  GI50: 16.4 µM
  TGI: 49.3 µM
HCT-116 colon
  GI50: 4.3 µM
  TGI: 22.1 µM
HCT-15 colon
  GI50: 14.2 µM
  TGI: > 100 µM
HL-60(TB) leukemia
  GI50: 5.5 µM
  TGI: 28.2 µM
HOP-62 NSCLC
  GI50: 6.22 µM
  TGI: 44 µM
HOP-92 NSCLC
  GI50: 19.6 µM
  TGI: > 100 µM
HS 578T breast
  GI50: 4.59 µM
  TGI: 27.2 µM
HT29 colon
  GI50: 9.05 µM
  TGI: > 100 µM
IGROV1 ovarian
  GI50: 4.15 µM
  TGI: 28.7 µM
K-562 leukemia
  GI50: 8.25 µM
  TGI: > 100 µM
KM12 colon
  GI50: 2.85 µM
  TGI: > 100 µM
LOX IMVI melanoma
  GI50: 7.8 µM
  TGI: 25 µM
M14 melanoma
  GI50: 8.54 µM
  TGI: 44.2 µM
MALME-3M melanoma
  GI50: 8.87 µM
  TGI: 34.2 µM
MCF7 breast
  GI50: 5.38 µM
  TGI: 45.4 µM
MDA-MB-231 breast
  GI50: 13.1 µM
  TGI: > 100 µM
MDA-MB-435
  GI50: 5.36 µM
  TGI: > 100 µM
MOLT-4 leukemia
  GI50: 4.2 µM
  TGI: 40.4 µM
NCI-H226 lung
  GI50: 22.7 µM
  TGI: 67.2 µM
NCI-H23 lung
  GI50: 8.73 µM
  TGI: > 100 µM
NCI-H460 lung
  GI50: 10.4 µM
  TGI: 33.9 µM
NCI-H522 lung
  GI50: 3.45 µM
  TGI: 19.6 µM
NCI/ADR-RES ovarian
  GI50: 15.8 µM
  TGI: > 100 µM
OVCAR-3 ovarian
  GI50: 23.2 µM
  TGI: 75.8 µM
OVCAR-5 ovarian
  GI50: 19.2 µM
  TGI: 86.6 µM
OVCAR-8 ovarian
  GI50: 15.3 µM
  TGI: > 100 µM
PC-3 prostate
  GI50: 14.6 µM
  TGI: > 100 µM
RPMI-8226 leukemia
  GI50: 11.5 µM
  TGI: > 100 µM
RXF 393 renal
  GI50: 2.67 µM
  TGI: 12.2 µM
SF-268 CNS
  GI50: 12 µM
  TGI: 55.3 µM
SF-295 CNS
  GI50: 9.57 µM
  TGI: 69.8 µM
SF-539 CNS
  GI50: 7.55 µM
  TGI: 22.8 µM
SK-MEL-2 melanoma
  GI50: 13 µM
  TGI: 30.5 µM
SK-MEL-28 melanoma
  GI50: 12.8 µM
  TGI: 74.8 µM
SK-MEL-5 melanoma
  GI50: 9.12 µM
  TGI: 22.9 µM
SK-OV-3 ovarian
  GI50: 6.85 µM
  TGI: 38.5 µM
SN12C renal
  GI50: 8.25 µM
  TGI: 81.8 µM
SNB-19 CNS
  GI50: 26.8 µM
  TGI: > 100 µM
SNB-75 CNS
  GI50: 3.69 µM
  TGI: 16.9 µM
SR leukemia
  GI50: 5.25 µM
  TGI: > 100 µM
SW-620 colon
  GI50: 11.3 µM
  TGI: 48.7 µM
T-47D breast
  GI50: 9.51 µM
  TGI: 76.9 µM
TK-10 renal
  GI50: 10.1 µM
  TGI: 75 µM
U251 CNS
  GI50: 18.2 µM
  TGI: 56.9 µM
UACC-257 melanoma
  GI50: 25.9 µM
  TGI: > 100 µM
UACC-62 melanoma
  GI50: 5.54 µM
  TGI: 28.3 µM
UO-31 renal
  GI50: 4.26 µM
  TGI: 19.5 µM
